Laboratory results as given in ChEMBL document CHEMBL1201862, “PubChem BioAssay data set” (2004).
Calls of active or inactive are those of the source.

What was measured:
[1] = target: G-protein coupled receptor 183 (Homo sapiens, UniProt P32249); experiment: SAR confirmation of small molecule antagonists of the EBI2 receptor via a luminescent beta-arrestin assa.; type: functional
[2] = A549 cell cytotoxicity, dose response, cytotoxicity control, plate reader, cherry-pick, antagonist series (AID 743412); type: functional, cell-based
[3] = HepG2 cell cytotoxicity, dose response, cytotoxicity control, plate reader, cherry-pick, antagonist series (AID 743416); type: functional, cell-based
[4] = LGR2 antagonists, dose response, cell-based, HEK293, CRE-luciferase reporter, cherry pick, set 2 (AID 743343); type: functional;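 further: transfected cells were stimulated with diluted bursicon conditioned medium after compound addition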
[5] = MC4R antagonists, dose response, counter-screen for LGR2 antagonist project, cell-based, plate reader, cherry pick (AID 743444); type: functional;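 further: transfected HEK 293 cells stimulated with alpha-MSH peptide; potency of inhibitors of the alpha-MSH evoked signal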
[6] = HEK293 cell cytotoxicity, dose response, cytotoxicity control, plate reader, cherry-picked samples (AID 743446); type: functional, cell-based
[7] = inhibitors of intracellular T. cruzi replication, confirmation, NIH3T3 host cells, beta-gal luminescence (AID 2044); type: functional, cell-based;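 further: intracellular parasites grown in NIH/3T3 mouse fibroblasts as host cells; luminescent beta-galactosidase reporter signal from transgenic T. cruzi replicating inside host cells; inhibitors lower the luminescence signal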
[8] = cytotoxicity toward NIH3T3 fibroblasts, dose response, counter-screen, cell-based, ATP luminescence, mouse fibroblasts (AID 2010); type: functional;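 further: cells exposed to compound for about 90 hours before reading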
[9] = THP-1 cell cytotoxicity, dose response, cytotoxicity control for Vif-APOBEC3G degradation inhibitor project, THP-1 cells (AID 1117359); type: functional; conditions: Human immunodeficiency virus 1, THP-1
[10] = target: NAD-dependent protein deacylase sirtuin-5, mitochondrial (Homo sapiens, UniProt Q9NXA8); experiment: SIRT5 desuccinylase inhibitors, dose response, biochemical, fluorescence imaging, cherry-pick, set 5 (AID 720591);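 further: desuccinylation of succinyl peptide AMC substrate read as fluorescence after trypsin release; potency of inhibitors that lower fluorescence and may act on trypsin instead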
Chain of NAD-dependent protein deacylase sirtuin-5, mitochondrial (Q9NXA8 whole entry): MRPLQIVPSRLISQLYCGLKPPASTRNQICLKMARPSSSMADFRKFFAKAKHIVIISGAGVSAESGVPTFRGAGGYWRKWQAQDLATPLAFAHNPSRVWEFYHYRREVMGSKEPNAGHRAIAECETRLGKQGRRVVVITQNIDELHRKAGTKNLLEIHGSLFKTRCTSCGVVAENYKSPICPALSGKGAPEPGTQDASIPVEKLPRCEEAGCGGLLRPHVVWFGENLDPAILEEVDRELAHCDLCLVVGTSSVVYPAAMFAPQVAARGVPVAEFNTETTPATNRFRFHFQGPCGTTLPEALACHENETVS

Kallikrein-7 = Kallikrein-7 (Homo sapiens, UniProt P49862); experiment: Fluorescence Intensity-based biochemical primary high throughput dose response assay to identify activators of kallikrein-7 (K7) zymogen.
Chain of Kallikrein-7 (P49862 whole entry): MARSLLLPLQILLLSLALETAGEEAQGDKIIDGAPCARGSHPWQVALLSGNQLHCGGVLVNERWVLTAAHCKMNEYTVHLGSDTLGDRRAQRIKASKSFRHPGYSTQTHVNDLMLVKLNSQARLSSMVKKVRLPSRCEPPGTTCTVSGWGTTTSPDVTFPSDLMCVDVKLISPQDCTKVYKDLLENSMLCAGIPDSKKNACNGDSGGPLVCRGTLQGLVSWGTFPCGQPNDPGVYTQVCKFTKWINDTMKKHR

BJ [11] = experiment: cytotoxicity toward BJ-TERT fibroblasts, dose response, cell-based, RAS-independent, luminescence (AID 1933); type: functional; conditions: Homo sapiens
BJ [12] = experiment: cells; type: functional, cell-based; conditions: Homo sapiens
BJ [13] = experiment: cytotoxicity toward BJ-TERT-LT-ST fibroblasts, dose response, cell-based, RAS-independent, luminescence (AID 1935); type: functional; conditions: Homo sapiens;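 further: BJ fibroblasts immortalized with TERT plus LT and ST oncogenes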
[14] = cytotoxicity toward DRD oncogenic fibroblasts, dose response, cell-based, non-viral oncogenic, luminescence (AID 1934); type: functional; conditions: Homo sapiens
[15] = target: T1, Short transient receptor potential channel 4 (Mus musculus, UniProt Q9QUQ5); experiment: mouse TRPC4 channel inhibitors, dose response, cell-based, HEK293 TRPC4/mu-opioid, Fluo-4 calcium (AID 434942); type: functional;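 further: potency of inhibitors blocking the TRPC4 calcium response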
T1 sequence (Q9QUQ5 whole entry): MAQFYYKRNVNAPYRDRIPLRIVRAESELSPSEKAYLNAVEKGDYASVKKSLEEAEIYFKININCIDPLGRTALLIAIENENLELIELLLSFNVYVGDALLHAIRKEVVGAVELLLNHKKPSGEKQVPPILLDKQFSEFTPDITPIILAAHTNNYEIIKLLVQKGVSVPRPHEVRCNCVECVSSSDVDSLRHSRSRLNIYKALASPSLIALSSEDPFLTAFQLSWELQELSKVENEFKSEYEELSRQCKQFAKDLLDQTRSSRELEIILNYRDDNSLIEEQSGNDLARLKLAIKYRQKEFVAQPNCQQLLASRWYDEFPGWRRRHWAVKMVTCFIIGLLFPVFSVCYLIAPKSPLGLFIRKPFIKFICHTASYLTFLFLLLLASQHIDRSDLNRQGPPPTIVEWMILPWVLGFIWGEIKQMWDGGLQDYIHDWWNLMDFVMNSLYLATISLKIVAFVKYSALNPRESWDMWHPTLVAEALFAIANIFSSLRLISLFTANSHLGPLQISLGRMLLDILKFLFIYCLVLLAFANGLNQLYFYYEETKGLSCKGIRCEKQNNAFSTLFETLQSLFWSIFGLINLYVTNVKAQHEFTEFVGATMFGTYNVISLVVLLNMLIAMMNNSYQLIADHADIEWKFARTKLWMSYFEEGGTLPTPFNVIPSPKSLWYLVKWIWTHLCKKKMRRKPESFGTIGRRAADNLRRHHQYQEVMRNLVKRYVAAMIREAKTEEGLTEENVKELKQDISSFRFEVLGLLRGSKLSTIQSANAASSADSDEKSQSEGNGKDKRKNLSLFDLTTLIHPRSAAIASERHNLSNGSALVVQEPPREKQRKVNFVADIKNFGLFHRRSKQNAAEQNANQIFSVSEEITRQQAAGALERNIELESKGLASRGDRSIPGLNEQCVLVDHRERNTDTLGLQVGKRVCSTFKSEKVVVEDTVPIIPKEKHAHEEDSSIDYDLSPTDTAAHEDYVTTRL

BJ [16] = experiment: cytotoxicity toward Ras-transformed BJeLR fibroblasts, dose response, cell-based, alamar blue fluorescence, cherrypicked samples (AID 2631); type: functional; conditions: Homo sapiens;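 further: confirmatory dose-response assay in RAS-dependent BJ fibroblasts engineered with TERT, LT and ST, with cytotoxicity read by fluorescence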
Transthyretin = Transthyretin (Homo sapiens, UniProt P02766); experiment: Luminescence-based cell-based high throughput dose response assay to identify activators of Transthyretin (TTR) transcription.; type: functional
INS1 = experiment: beta cell apoptosis inhibitors, cytokine rescue, dose response, luminescence, retest (AID 449756); type: functional, cell-based; conditions: Rattus norvegicus;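 further: cell death triggered by IL-1 beta plus TNF-alpha plus IFN-gamma mixture; protective hits raise ATP signal compared with cytokine alone wells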
[17] = target: T2, DNA repair and recombination protein RAD54-like (Homo sapiens, UniProt Q92698); experiment: inhibitors of human RAD54 branch migration, confirmation, biochemical, fluorescence, cherry-picked samples, dose series (AID 651657); type: functional
T2 sequence (Q92698 whole entry): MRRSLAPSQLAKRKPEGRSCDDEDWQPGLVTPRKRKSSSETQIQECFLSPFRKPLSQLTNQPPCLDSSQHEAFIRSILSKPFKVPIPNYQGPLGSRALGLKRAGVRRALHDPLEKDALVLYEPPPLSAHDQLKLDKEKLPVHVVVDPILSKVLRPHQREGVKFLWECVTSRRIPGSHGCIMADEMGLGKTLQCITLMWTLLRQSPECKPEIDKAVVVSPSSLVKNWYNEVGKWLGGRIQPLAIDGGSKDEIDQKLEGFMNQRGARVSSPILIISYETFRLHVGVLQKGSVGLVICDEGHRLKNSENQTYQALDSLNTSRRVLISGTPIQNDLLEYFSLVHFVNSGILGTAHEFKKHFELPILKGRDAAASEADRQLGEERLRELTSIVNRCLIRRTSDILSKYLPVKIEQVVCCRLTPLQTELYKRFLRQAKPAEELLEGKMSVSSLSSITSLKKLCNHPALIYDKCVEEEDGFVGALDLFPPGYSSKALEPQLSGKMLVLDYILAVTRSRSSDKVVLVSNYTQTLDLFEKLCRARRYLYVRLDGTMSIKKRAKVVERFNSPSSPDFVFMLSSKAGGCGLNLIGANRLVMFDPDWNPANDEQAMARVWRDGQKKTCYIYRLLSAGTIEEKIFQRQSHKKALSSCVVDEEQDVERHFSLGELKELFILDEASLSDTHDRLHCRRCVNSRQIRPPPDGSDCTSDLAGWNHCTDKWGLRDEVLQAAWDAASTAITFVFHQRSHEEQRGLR

[18] = target: T3, DNA repair protein RAD52 homolog (Homo sapiens, UniProt P43351); type: functional, biochemical
T3 sequence (P43351 whole entry): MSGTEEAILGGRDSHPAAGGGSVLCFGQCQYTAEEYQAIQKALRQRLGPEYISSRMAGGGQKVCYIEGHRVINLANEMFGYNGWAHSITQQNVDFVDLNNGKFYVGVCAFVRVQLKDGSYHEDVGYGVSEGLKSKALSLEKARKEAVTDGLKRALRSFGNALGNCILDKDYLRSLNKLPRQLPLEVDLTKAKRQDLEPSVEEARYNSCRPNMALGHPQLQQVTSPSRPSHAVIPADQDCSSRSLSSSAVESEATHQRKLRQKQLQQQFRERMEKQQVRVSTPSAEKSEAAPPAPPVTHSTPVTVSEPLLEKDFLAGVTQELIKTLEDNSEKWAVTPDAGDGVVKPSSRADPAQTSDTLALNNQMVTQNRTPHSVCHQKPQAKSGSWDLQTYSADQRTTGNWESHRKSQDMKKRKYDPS

[19] = target: Potassium channel subfamily K member 9 (Homo sapiens, UniProt Q9NPC2); experiment: TASK3 (KCNK9) channel inhibitors, thallium flux, SAR follow-up, selectivity assay for TASK1 inhibitor project, cell-based, FluxOR thallium flux, concentration-response (AID 652211); type: functional;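 further: potency is for inhibitors of the channel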
Chain of Potassium channel subfamily K member 9 (Q9NPC2 whole entry): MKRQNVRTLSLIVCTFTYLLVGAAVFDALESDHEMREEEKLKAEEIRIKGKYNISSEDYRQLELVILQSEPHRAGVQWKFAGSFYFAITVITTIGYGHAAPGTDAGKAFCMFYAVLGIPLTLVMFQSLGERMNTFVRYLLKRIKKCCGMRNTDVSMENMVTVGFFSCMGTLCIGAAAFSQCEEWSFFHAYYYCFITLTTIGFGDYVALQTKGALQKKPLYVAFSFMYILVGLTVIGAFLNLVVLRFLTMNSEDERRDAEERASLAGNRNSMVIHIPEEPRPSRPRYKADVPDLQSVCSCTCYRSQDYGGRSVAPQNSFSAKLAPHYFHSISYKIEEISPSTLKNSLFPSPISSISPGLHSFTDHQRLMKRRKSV

[20] = target: Potassium channel subfamily K member 3 (Homo sapiens, UniProt O14649); experiment: TASK1 (KCNK3) potassium channel inhibitors, SAR follow-up, CHO cells, FluxOR thallium flux (AID 652212); type: functional
Chain of Potassium channel subfamily K member 3 (O14649 whole entry): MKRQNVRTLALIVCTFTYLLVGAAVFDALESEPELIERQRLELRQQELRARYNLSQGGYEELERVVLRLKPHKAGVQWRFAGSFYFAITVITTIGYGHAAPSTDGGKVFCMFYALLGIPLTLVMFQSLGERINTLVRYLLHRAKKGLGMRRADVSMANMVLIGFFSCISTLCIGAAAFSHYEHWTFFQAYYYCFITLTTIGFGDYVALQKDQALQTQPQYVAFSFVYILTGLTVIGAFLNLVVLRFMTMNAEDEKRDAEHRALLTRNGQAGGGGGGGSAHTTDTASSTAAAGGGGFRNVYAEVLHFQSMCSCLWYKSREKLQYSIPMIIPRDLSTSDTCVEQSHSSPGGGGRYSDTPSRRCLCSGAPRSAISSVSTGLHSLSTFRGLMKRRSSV

HEK293 = experiment: HEK293T cell cytotoxicity, dose response, cytotoxicity control, ATP luminescence, cherry-pick samples (AID 687005); type: functional, cell-based; conditions: Homo sapiens;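 further: cells exposed to compound for 48 hours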
[21] = HEK293 Cytotoxicity Assay Measured in Cell-Based System Using Plate Reader - 7071-01_Inhibitor_Dose_CherryPick_Activity_Set2.; type: functional
Paired box protein Pax-8 = Paired box protein Pax-8 (Homo sapiens, UniProt Q06710); experiment: inhibitors of PAX8-driven TPO luciferase reporter, dose response, RMG-I cells, cherry-pick (AID 687027); type: functional, cell-based;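 further: luciferase reporter driven by Pax8 target thyroperoxidase promoter measured by SteadyGlo luminescence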
Chain of Paired box protein Pax-8 (Q06710 whole entry): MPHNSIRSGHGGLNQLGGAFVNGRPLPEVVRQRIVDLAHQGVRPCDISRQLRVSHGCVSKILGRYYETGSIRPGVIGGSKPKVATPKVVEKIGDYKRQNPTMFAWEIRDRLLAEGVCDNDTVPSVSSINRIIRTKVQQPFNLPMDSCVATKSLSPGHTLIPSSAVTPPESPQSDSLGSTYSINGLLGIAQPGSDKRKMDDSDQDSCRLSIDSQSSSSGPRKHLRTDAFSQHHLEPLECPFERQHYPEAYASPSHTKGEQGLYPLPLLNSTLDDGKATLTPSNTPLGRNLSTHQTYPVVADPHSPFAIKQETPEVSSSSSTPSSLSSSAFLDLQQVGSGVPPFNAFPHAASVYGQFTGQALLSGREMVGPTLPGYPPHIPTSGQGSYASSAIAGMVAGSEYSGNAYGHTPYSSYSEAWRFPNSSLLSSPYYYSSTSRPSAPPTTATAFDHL

[22] = A2780 ovarian cancer cell cytotoxicity, dose response, cytotoxicity control, plate reader, dry powder samples (AID 743046); type: functional, cell-based
[23] = NIH:OVCAR-3 ovarian cancer cell cytotoxicity, dose response, PAX8 inhibitor project, plate reader, dry powder samples (AID 743044); type: functional, cell-based
[24] = cytotoxicity in OVCAR8 ovarian cancer cells, dose response, PAX8 project, cell-based, plate reader, dry powder samples (AID 743197); type: functional; conditions: OVCAR-8

Chain of G-protein coupled receptor 183 (P32249 whole entry): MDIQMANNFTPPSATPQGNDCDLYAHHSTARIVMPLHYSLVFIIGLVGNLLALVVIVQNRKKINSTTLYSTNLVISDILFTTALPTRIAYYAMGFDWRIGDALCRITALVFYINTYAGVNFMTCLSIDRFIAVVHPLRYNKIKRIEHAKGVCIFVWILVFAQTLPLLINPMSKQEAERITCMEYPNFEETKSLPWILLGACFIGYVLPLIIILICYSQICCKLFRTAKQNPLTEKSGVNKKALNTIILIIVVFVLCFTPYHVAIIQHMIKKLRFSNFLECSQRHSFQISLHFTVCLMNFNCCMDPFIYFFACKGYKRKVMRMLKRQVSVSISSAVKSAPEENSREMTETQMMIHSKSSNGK

O=C(/C=C/c1ccc(F)cc1)N1CCN(S(=O)(=O)Cc2ccccc2)CC1
IC50 [1]: 0.0287 µM (active)

NC(=O)c1ccsc1NC(=O)c1ccc(N2CCCC2=O)cc1
AC50 [2]: 50.9 µM (active)
AC50 [3]: > 52 µM (inactive)
AC50 [4]: 10.5 µM (active)
AC50 [5]: 16.5 µM (active)
AC50 [6]: > 52 µM (inactive)

O=[N+]([O-])c1ccc(/C=N/Nc2nc(N3CCCC3)nc(N3CCCC3)n2)o1
EC50 [7]: 0.563 µM (active)
EC50 [8]: > 60 µM (not active)
CC50 [9]: > 40 µM (active)

O=C(Cn1cnc(S(=O)(=O)N2CCCC2)c1)Nc1cccc(Br)c1
AC50 [10]: > 30 µM (inactive)

CN1C(=O)c2ccccc2N(C)C1c1ccc(F)cc1 (configuration not stated)
EC50 (Kallikrein-7): > 69.5 µM (inactive)

CN(C)CC(CCC(CN(C)C)C(O)(c1ccccc1)c1ccccc1)C(O)(c1ccccc1)c1ccccc1 (configuration not stated)
EC50 (BJ [11]): 4.97 µM (inconclusive)
EC50 (BJ [12]): 11.6 µM (active)
EC50 (BJ [13]): 5.82 µM (inconclusive)
EC50 [14]: 5.81 µM (active)
EC50 [15]: 1.68 µM (active)
EC50 (BJ [16]): 2.13 µM (active)
EC50 (Transthyretin): > 167 µM (inactive)

COc1ccc(CCNc2c3ccccc3nc3ccccc23)cc1OC
AC50 (INS1): 4.5 µM (active)
AC50 [17]: 7.87 µM (active)
AC50 [18]: 6.38 µM (active)
EC50 (Transthyretin): > 167 µM (inactive)

CCOc1ccccc1NC(=O)c1cccc(NC(=O)c2ccccc2Cl)c1
IC50 [19]: 2.63 µM (active)
IC50 [20]: 0.084 µM (active)

CCS(=O)(=O)N1CCCCN2[C@H](C1)[C@@H](c1ccc(-c3ccc(C#N)cc3)cc1)[C@@H]2CO
AC50 (HEK293): 18.6 µM (active)
AC50 [21]: 18.6 µM (active)

C[C@H](CO)N1C[C@H](C)[C@H](CN(C)Cc2ccc(C(F)(F)F)cc2)OCCCC[C@H](C)Oc2ccc(NC(=O)Nc3ccccc3)cc2C1=O
AC50 (Paired box protein Pax-8): 8.44 µM (active)
AC50 [22]: 11.8 µM (active)
AC50 [23]: 27.6 µM (active)
AC50 [24]: 30.7 µM (active)

CCCCCCCCN1C(=O)[C@H](CC(=O)NCCCN2CCCC2=O)C[C@@]2(C(=O)OC)CC(C)(C)CC=C12
AC50 [10]: > 30 µM (inactive)

CC(C)(C)c1ccc(S(=O)(=O)N2CCN(C(=O)/C=C/c3ccc(Cl)c(Cl)c3)CC2)cc1
IC50 [1]: 0.0468 µM (active)
